# Test results published in patent publication US11826368B2 (DAEGU GYEONGBUK INSTITUTE OF SCIENCE AND TECHNOLOGY, priority 2018, dated 2023).
# Tested on: BV2 microglial cells
# Assay: MTT assay for cytotoxicity toward BV2 microglial cells
# Format: cell-based
# Settings: 24 hours
# Method: Cell viability was assessed using the 3-(4,5-dimethylthiazol-2-yl)-2,5-diphenyltetrazolium bromide (MTT) assay. […] The cells were then treated with 0.5 mg/ml MTT and incubated for 3 hours at 37° C. in a 5% CO2 incubator. Absorbance was read at 580 nm.
structure (smiles),measurement,setting,value
C=CC(=O)N1CCC[C@@H](n2nc(-c3ccc(Oc4ccccc4)cc3)c3c(N)ncnc32)C1 [ibrutinib],cytotoxicity in BV2 microglial cells,50 μM,cell death was detected
same,cytotoxicity in BV2 microglial cells,concentrations up to 25 μM,did not induce cytotoxicity
